One series has as its target T1, Brd4 bromodomain (Homo sapiens, UniProt O60885).
T1 construct: glutathione-S-transferase (GST) and His-tagged bromodomain; made in house
The series is described as follows: Alpha-screen enzyme assay (bromodomain binding to acetylated histone peptide).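 As to all read-outs here: AlphaScreen proximity readout pairing streptavidin donor beads with anti-GST acceptor beads, with hits checked against bead interference using a TruHit control kit.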 The note with it: for IC50 / inhibitory activity against Brd4 bromodomain (in words): alpha-screen assay; for IC50: inhibition of bromodomain binding activity, calculated with Prism6.

A further series concerns Ty82 cells. The series is described as follows: Cell cytotoxic assay in Ty82 cells. The conditions noted are these: Homo sapiens; for CC50: Ty82 cell cytotoxic activity, 72 h; for IC50: TY82, cell cytotoxic activity (Table 4 head prints IC50). It counts as cell-based. The procedure:
For the viability experiments, Ty82 cells were seeded in 96-well plates at 30% confluency and exposed to chemicals the next day. After 72 h, WST-1 reagent was added, and absorbance at 450 nm was measured by using a Spectramax spectrophotometer (Molecular Devices, San Jose, CA, USA) in accordance with the manufacturer’s instructions. The CC50 values were calculated by using GraphPad Prism version 5 for Windows. The curves were fitted using a nonlinear regression model with a log (inhibitor) versus response formula.

Molecules are shown by their SMILES. “And” between values parts separate entries of the source, which are not always exact repeats. Equal entries are not always repeated.

We go through 28 compounds from publication PMC8002823, “Synthesis and Structure–Activity Relationships of Aristoyagonine Derivatives as Brd4 Bromodomain Inhibitors with X-ray Co-Crystal Research” (Molecules, 2021).

Description for Brd4 bromodomain: Bromodomain was prepared as previously described. […] Streptavidin-coated donor beads and anti-GST alpha-screen acceptor beads were added under low-light condition. […] The alpha-screen results were confirmed by using alpha-screen TruHit kits (PerkinElmer, USA).

For the compound `Cc1ccc2c3c1Oc1ccc(C(F)(F)F)cc1C=C3N(C)C2=O` [Compound 8df, 1,5-Dimethyl-9-(trifluoromethyl)benzo[6,7]oxepino[4,3,2-cd]isoindol-2(1H)-one], the melting point (usually the temperature of the solid-liquid transition) is 227 to 229 °C. Besides, the IC50 – broadly, the point on the concentration scale where inhibition reaches its midpoint – at Brd4 bromodomain was > 32 µM.
Consider `CCN(CC)c1ccc2c3c1Oc1ccc(OCc4ccccc4)cc1C=C3N(C)C2=O` [Compound 8cd, 9-(Benzyloxy)-5-(diethylamino)-1-methylbenzo[6,7]oxepino[4,3,2-cd]isoindol-2(1H)-one], for which the melting point was in the range of 185 to 188 °C. Besides, the CC50 (in general, the concentration that lowers cell viability or growth by half) in the series with Ty82 cells was > 20 µM. Further, the IC50 at Brd4 bromodomain is > 32 µM.
For `CCN(CC)c1ccc2c3c1Oc1cc4c(cc1C=C3N(C)C2=O)OCO4` [Compound 8ce, 5-(Diethylamino)-1-methyl-[1,3]dioxolo[4”,5”.4′,5′]benzo[1′,2′:6,7]oxepino[4,3,2-cd]isoindol-2(1H)-one], in that order: 199 to 201 °C, 10 µM and 7.29 µM.
For `CCCc1ccc2c3c1Oc1ccc(OCc4ccccn4)cc1C=C3N(C)C2=O` [Compound 8dc, 1-Methyl-5-propyl-9-(pyridine-2-ylmethoxy)benzo[6,7]oxepino[4,3,2-cd]isoindol-2(1H)-one], the figures for the IC50 with Ty82 cells and on Brd4 bromodomain were 1.77 µM and 1.37 µM, respectively.
Take `CCCc1ccc2c3c1Oc1ccc(C(F)(F)F)cc1C=C3N(C)C2=O` [Compound 8db, 1-Methyl-5-propyl-9-(trifluoromethyl)benzo[6,7]oxepino[4,3,2-cd]isoindol-2(1H)-one]: the melting point lay within 239 to 241 °C. Moreover, the IC50 in the series with Ty82 cells is > 20 µM. For the same compound, on Brd4 bromodomain, the IC50 is > 32 µM.
On to `CCOc1ccc2c3c1Oc1ccc(C(F)(F)F)cc1C=C3N(C)C2=O` [Compound 8bj, 5-Ethoxy-1-methyl-9-(trifluoromethyl)benzo[6,7]oxepino[4,3,2-cd]isoindol-2(1H)-one], for which the melting point lay within 230 to 232 °C. Moreover, the CC50 in the series with Ty82 cells is > 20 µM. Also, on Brd4 bromodomain, the IC50 was > 9 µM.
`COc1cccc2c1Oc1c(OC)ccc3c1C(=C2)N(C)C3=O` [Compound 8aa, 5,7-Dimethoxy-1-methylbenzo[6,7]oxepino[4,3,2-cd]isoindol-2(1H)-one]: the melting point was in the range of 208 to 210 °C. For the same compound, the IC50 at Brd4 bromodomain is 0.84 µM.
Take `COc1ccc(CCOc2c(OC)ccc3c2Oc2c(OC)ccc4c2C(=C3)N(C)C4=O)cc1` [Compound 8ac, 5,8-Dimethoxy-7-(4-methoxyphenethoxy)-1-methylbenzo[6,7]oxepino[4,3,2-cd]isoindol-2(1H)-one]: the CC50 in the series on Ty82 cells is > 20 µM. For the same compound, the IC50 at Brd4 bromodomain is 3.74 µM.
Regarding `CCOc1c(OC)ccc2c1Oc1c(OC)ccc3c1C(=C2)N(C)C3=O` [Compound 8ab, 7-Ethoxy-5,8-dimethoxy-1-methylbenzo[6,7]oxepino[4,3,2-cd]isoindol-2(1H)-one], on Brd4 bromodomain (Brd4 IC50 ratio), the “increase in activity compared with 8ae” value is given as “four-fold increased activity”. For the same compound, at Brd4 bromodomain, the IC50 is 0.86 µM.
Regarding `CCOc1ccc2c3c1Oc1ccc(OCCN(CC)CC)cc1C=C3N(C)C2=O` [Compound 8bm, 9-(2-(Diethylamino)ethoxy)-5-ethoxy-1-methylbenzo[6,7]oxepino[4,3,2-cd]isoindol-2(1H)-one], the melting point fell in the range of 169 to 171 °C. In the series on Ty82 cells, this compound had a CC50 of 0.66 µM. In addition, the IC50 at Brd4 bromodomain is 0.91 µM.
In the case of `COc1ccc2c3c1Oc1cc4c(cc1C=C3N(C)C2=O)OCO4` [Compound 8bh, 5-Methoxy-1-methyl-[1,3]dioxolo[4”,5”.4′,5′]benzo[1′,2′:6,7]oxepino[4,3,2-cd]isoindol-2(1H)-one], the melting point was 237 to 239 °C. For the same compound, half-maximal cytotoxicity in the series on Ty82 cells (CC50) was put at 2.16 µM. Further, on Brd4 bromodomain, the “inhibitory activity against Brd4 bromodomain (in words)” value (“inhibitory activity” for short) is “modest inhibition” and the IC50 was 11.1 µM.
Take `COc1ccc2c3c1Oc1ccc(C(F)(F)F)cc1C=C3N(C)C2=O` [Compound 8bb, 5-Methoxy-1-methyl-9-(trifluoromethyl)benzo[6,7]oxepino[4,3,2-cd]isoindol-2(1H)-one]: the CC50 in the series with Ty82 cells is > 20 µM. In addition, at Brd4 bromodomain, the “inhibitory activity” value is given as “no inhibitory activity” and the IC50 is > 32 µM.
`CCCc1ccc2c3c1Oc1ccc(OCC(C)C)cc1C=C3N(C)C2=O` [Compound 8da, 9-Isobutoxy-1-methyl-5-propylbenzo[6,7]oxepino[4,3,2-cd]isoindol-2(1H)-one]: the melting point lay in the range of 196 to 199 °C. The compound further showed an IC50 in the series on Ty82 cells of 10 µM. At Brd4 bromodomain, the IC50 was 6.64 µM.
The compound `CCN(CC)CCOc1ccc2c(c1)C=C1c3c(ccc(OC)c3O2)C(=O)N1C` [Compound 8be, 9-(2-(Diethylamino)ethoxy)-5-methoxy-1-methylbenzo[6,7]oxepino[4,3,2-cd]isoindol-2(1H)-one] had a melting point of 174 to 176 °C. Besides, half-maximal cytotoxicity with Ty82 cells (CC50) was put at 0.56 µM. At Brd4 bromodomain, the IC50 was 0.86 µM.
`CCCc1ccc2c3c1Oc1cc4c(cc1C=C3N(C)C2=O)OCO4` [Compound 8de, 1-methyl-5-propyl-[1,3]dioxolo[4”,5”.4′,5′]benzo[1′,2′:6,7]oxepino[4,3,2-cd]isoindol-2(1H)-one] displayed a melting point of 257 to 259 °C. The same compound came in with an IC50 in the series with Ty82 cells of 4.5 µM. For the same compound, the IC50 at Brd4 bromodomain was 2.69 µM.
Turning to `COc1ccc2c(c1OCCCOc1ccccc1)Oc1c(OC)ccc3c1C(=C2)N(C)C3=O` [Compound 8ad, 5,8-Dimethoxy-1-methyl-7-(3-phenoxypropoxy)benzo[6,7]oxepino[4,3,2-cd]isoindol-2(1H)-one], the melting point fell in the range of 189 to 191 °C. For the same compound, in the series with Ty82 cells, the CC50 is > 4 µM. Besides, the IC50 on Brd4 bromodomain was 7.08 µM and 7.07 µM.
`CCOc1ccc2c3c1Oc1cc4c(cc1C=C3N(C)C2=O)OCO4` [Compound 8bp, 5-Ethoxy-1-methyl-[1,3]dioxolo[4”,5”.4′,5′]benzo[1′,2′:6,7]oxepino[4,3,2-cd]isoindol-2(1H)-one] had a melting point of 207 to 209 °C. In the series with Ty82 cells, this compound registered a CC50 of 3.81 µM. Also, on Brd4 bromodomain, the “inhibitory activity” value is listed as “modest inhibition” and the IC50 is 2.89 µM.
`CCOc1ccc2c3c1Oc1ccc(O)cc1C=C3N(C)C2=O` [Compound 8bl, 5-Ethoxy-9-hydroxy-1-methylbenzo[6,7]oxepino[4,3,2-cd]isoindol-2(1H)-one]: in the series on Ty82 cells, the midpoint of cytotoxicity, the CC50, lay at 0.31 µM. Moreover, the IC50 on Brd4 bromodomain is 1.12 µM.
For `CCN(CC)c1ccc2c3c1Oc1ccc(O)cc1CC3N(C)C2=O` (centres unmarked) [Compound 8cc, 5-(Diethylamino)-9-hydroxy-1-methyl-11,11a-dihydrobenzo[6,7]oxepino[4,3,2-cd]isoindol-2(1H)-one], the melting point fell in the range of 165 to 167 °C. Besides, in the series with Ty82 cells, it took 10 µM to reach half-maximal cytotoxicity (CC50). In addition, the IC50 on Brd4 bromodomain is 5.86 µM.
Take `CCOc1ccc2c3c1Oc1ccc(OCC(C)C)cc1C=C3N(C)C2=O` [Compound 8bi, 9-Isobutoxy-5-ethoxy-1-methylbenzo[6,7]oxepino[4,3,2-cd]isoindol-2(1H)-one]: the melting point lay within 178 to 180 °C. Further, the IC50 on Brd4 bromodomain is > 10 µM.
For the compound `COc1ccc2c3c1Oc1ccc(OCc4ccccc4)cc1C=C3N(C)C2=O` [Compound 8bg, 9-Benzyloxy-5-methoxy-1-methylbenzo[6,7]oxepino[4,3,2-cd]isoindol-2(1H)-one], the melting point was in the range of 187 to 189 °C. In addition, at Brd4 bromodomain, the “inhibitory activity” value is reported as “did not” and the IC50 is > 32 µM.
`COc1ccc2c3c1Oc1ccc(O)cc1C=C3N(C)C2=O` [Compound 8bd, 9-Hydroxy-5-methoxy-1-methylbenzo[6,7]oxepino[4,3,2-cd]isoindol-2(1H)-one] displayed a melting point of 177 to 179 °C. The same compound registered a CC50 in the series on Ty82 cells of 0.54 µM. Further, the IC50 at Brd4 bromodomain is 0.41 µM.
`CCN(CC)c1ccc2c3c1Oc1ccc(O)cc1C=C3N(C)C2=O` [Compound 8cb, 5-(Diethylamino)-9-hydroxy-1-methylbenzo[6,7]oxepino[4,3,2-cd]isoindol-2(1H)-one] registered a melting point of 181 to 183 °C. Moreover, the CC50 in the series on Ty82 cells was determined as 8 µM. At Brd4 bromodomain, the “inhibitory activity” value was “weaker inhibitory effects than 8bd and 8bl”; the IC50 was 4.89 µM.
In turn, `CCOc1ccc2c3c1Oc1c(ccc(OC)c1OCCc1ccc(OC)cc1)C=C3N(C)C2=O` [Compound 8af, 5-Ethoxy-8-methoxy-7-(4-methoxyphenethoxy)-1-methylbenzo[6,7]oxepino[4,3,2-cd]isoindol-2(1H)-one] returned a melting point of 189 to 191 °C. Also, the CC50 in the series on Ty82 cells is > 4 µM. For the same compound, on Brd4 bromodomain, the “inhibitory activity” value is reported as “weak inhibitory effect” and the IC50 was 5.33 µM.
The compound `CCCc1ccc2c3c1Oc1ccc(OCc4ccccc4)cc1C=C3N(C)C2=O` [Compound 8dd, 9-(Benzyloxy)-1-methyl-5-propylbenzo[6,7]oxepino[4,3,2-cd]isoindol-2(1H)-one] gave a melting point of 203 to 205 °C. Besides, the IC50 in the series with Ty82 cells came out at 10 µM. Further, at Brd4 bromodomain, the IC50 was 9 µM.
Turning to `COc1ccc2c3c1Oc1ccc(OCC(C)C)cc1C=C3N(C)C2=O` [Compound 8ba, 9-Isobutoxy-5-methoxy-1-methylbenzo[6,7]oxepino[4,3,2-cd]isoindol-2(1H)-one], on Brd4 bromodomain, the IC50 was 16.7 µM.
The compound `CCOc1ccc2c3c1Oc1c(ccc(OC)c1OC)C=C3N(C)C2=O` [Compound 8ae, 5-Ethoxy-7,8-dimethoxy-1-methylbenzo[6,7]oxepino[4,3,2-cd]isoindol-2(1H)-one] displayed a melting point of 219 to 220 °C. In addition, on Brd4 bromodomain, the “inhibitory activity” value is on record as “slightly increased the inhibitory activity compared with 8af” and the IC50 was 4.16 µM.
On to `CCOc1ccc2c3c1Oc1ccc(OCc4ccccc4)cc1C=C3N(C)C2=O` [Compound 8bo], for which the melting point was in the range of 198 to 200 °C.
